Experimental data taken from ChEMBL document CHEMBL3991601, “The target landscape of clinical kinase drugs” (Science, 2017).
Activity calls are given as the source filed them. Cut-off read from the data, not from the text of the source, for most assays here: actives have a measured Kd and inactives only a lower limit.

target: T1, Ras-related protein Rab-27A (Homo sapiens, UniProt P51159)
T1 sequence (P51159 whole entry): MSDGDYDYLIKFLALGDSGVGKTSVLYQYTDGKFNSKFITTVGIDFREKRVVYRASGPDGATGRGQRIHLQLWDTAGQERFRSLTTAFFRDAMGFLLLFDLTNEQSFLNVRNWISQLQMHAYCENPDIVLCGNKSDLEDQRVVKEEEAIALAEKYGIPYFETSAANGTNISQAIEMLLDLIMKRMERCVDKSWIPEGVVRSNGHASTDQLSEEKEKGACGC
Note: in the data inactive means no Kd found up to 30 µM.

With `CNC(=O)c1ccc(-c2cnc3ncc(Cc4ccc5ncccc5c4)n3n2)cc1F` [CAPMATINIB] as the molecule, how does the Kd read?
Its Kd is > 30 µM (inactive).

For `COCCNCc1ccc(-c2cc3nccc(Oc4ccc(NC(=S)NC(=O)Cc5ccc(F)cc5)cc4F)c3s2)nc1` [GLESATINIB], which Kd is on record?
Its Kd is > 30 µM (inactive).

For `Cn1cc(-c2ccc3nnc(C(F)(F)c4ccc5ncccc5c4)n3n2)cn1` [JNJ-38877605], which Kd is on record?
Its Kd is > 30 µM (inactive).

target: T2, ADP/ATP translocase 3 (Homo sapiens, UniProt P12236)
T2 sequence (P12236 whole entry): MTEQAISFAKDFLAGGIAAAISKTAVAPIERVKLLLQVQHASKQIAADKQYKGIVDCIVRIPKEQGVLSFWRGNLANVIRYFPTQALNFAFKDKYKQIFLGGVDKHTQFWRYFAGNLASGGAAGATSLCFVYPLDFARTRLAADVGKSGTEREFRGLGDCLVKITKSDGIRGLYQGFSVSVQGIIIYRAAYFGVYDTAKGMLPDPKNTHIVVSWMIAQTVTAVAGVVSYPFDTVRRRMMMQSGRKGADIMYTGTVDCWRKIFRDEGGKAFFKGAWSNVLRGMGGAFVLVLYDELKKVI

For `CNC(=O)c1ccc(-c2cnc3ncc(Cc4ccc5ncccc5c4)n3n2)cc1F` [CAPMATINIB], which Kd is on record?
The Kd was > 30 µM (inactive).

With `COCCNCc1ccc(-c2cc3nccc(Oc4ccc(NC(=S)NC(=O)Cc5ccc(F)cc5)cc4F)c3s2)nc1` [GLESATINIB] as the molecule, how does the Kd read?
The Kd was > 30 µM (inactive).

Which Kd does the source give for `Cn1cc(-c2ccc3nnc(C(F)(F)c4ccc5ncccc5c4)n3n2)cn1` [JNJ-38877605] here?
The Kd was > 30 µM (inactive).

target: T3, DNA replication licensing factor MCM4 (Homo sapiens, UniProt P33991)
T3 sequence (P33991 whole entry): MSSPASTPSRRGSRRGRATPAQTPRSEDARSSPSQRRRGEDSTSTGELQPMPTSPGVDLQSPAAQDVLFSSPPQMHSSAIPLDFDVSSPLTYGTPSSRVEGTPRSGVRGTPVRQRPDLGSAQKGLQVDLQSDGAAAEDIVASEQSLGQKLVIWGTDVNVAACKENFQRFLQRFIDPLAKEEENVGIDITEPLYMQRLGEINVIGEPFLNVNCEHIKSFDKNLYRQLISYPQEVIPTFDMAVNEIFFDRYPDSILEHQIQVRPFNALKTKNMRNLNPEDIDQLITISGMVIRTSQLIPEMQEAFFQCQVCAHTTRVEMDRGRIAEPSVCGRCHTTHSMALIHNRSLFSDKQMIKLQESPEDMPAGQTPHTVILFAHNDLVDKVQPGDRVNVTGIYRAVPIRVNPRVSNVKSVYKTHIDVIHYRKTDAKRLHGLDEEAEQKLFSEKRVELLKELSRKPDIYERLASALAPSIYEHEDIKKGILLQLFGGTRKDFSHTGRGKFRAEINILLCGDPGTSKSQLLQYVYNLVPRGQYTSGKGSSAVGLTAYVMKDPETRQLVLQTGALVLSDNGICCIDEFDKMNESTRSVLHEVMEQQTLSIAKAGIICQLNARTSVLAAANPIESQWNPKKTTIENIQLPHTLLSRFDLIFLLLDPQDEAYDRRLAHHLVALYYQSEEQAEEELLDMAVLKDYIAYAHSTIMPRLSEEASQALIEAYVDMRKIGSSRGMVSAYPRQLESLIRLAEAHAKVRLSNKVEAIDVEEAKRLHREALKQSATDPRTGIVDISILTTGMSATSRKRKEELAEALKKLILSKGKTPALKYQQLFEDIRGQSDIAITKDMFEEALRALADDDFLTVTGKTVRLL

How did the Kd turn out when `CNC(=O)c1ccc(-c2cnc3ncc(Cc4ccc5ncccc5c4)n3n2)cc1F` [CAPMATINIB] was run?
The Kd was > 30 µM (inactive).

`COCCNCc1ccc(-c2cc3nccc(Oc4ccc(NC(=S)NC(=O)Cc5ccc(F)cc5)cc4F)c3s2)nc1` [GLESATINIB] was tested. Which Kd did it give?
Its Kd is > 30 µM (inactive).

target: Ras-related protein Rab-6A (Homo sapiens, UniProt P20340)
Sequence (P20340 whole entry): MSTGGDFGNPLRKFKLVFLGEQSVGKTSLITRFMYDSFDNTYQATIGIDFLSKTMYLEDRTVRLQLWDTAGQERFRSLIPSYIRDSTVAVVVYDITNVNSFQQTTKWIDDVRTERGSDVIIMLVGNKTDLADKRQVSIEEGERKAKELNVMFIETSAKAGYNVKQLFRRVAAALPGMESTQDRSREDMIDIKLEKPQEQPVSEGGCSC

Which Kd does the source give for `COCCNCc1ccc(-c2cc3nccc(Oc4ccc(NC(=S)NC(=O)Cc5ccc(F)cc5)cc4F)c3s2)nc1` [GLESATINIB] here?
The Kd was > 30 µM (inactive).

Which Kd does the source give for `Cn1cc(-c2ccc3nnc(C(F)(F)c4ccc5ncccc5c4)n3n2)cn1` [JNJ-38877605] here?
The Kd was > 30 µM (inactive).

target: Proto-oncogene tyrosine-protein kinase Src (Homo sapiens, UniProt P12931)
Sequence (P12931 2-536 limits assumed): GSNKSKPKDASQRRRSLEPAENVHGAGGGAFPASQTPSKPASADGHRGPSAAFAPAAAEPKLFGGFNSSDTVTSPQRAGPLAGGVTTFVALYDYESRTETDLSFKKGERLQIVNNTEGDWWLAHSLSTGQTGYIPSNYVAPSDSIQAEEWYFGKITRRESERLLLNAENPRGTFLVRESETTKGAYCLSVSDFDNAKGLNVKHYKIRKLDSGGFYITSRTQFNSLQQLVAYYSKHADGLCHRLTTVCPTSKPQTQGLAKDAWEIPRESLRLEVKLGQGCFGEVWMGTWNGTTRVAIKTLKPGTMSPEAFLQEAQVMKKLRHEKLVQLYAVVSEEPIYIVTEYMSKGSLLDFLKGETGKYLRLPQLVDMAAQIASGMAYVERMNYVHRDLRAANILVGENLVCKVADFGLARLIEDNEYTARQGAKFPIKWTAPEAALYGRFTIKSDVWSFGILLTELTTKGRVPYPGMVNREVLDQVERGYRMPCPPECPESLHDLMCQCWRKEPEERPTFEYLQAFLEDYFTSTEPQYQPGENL

Which Kd does the source give for `CNC(=O)c1ccc(-c2cnc3ncc(Cc4ccc5ncccc5c4)n3n2)cc1F` [CAPMATINIB] here?
Its Kd is > 30 µM (inactive).

With `Cn1cc(-c2ccc3nnc(C(F)(F)c4ccc5ncccc5c4)n3n2)cn1` [JNJ-38877605] as the molecule, how does the Kd read?
The Kd was > 30 µM (inactive).

target: Protein-tyrosine kinase 6 (Homo sapiens, UniProt Q13882)

With `CNC(=O)c1ccc(-c2cnc3ncc(Cc4ccc5ncccc5c4)n3n2)cc1F` [CAPMATINIB] as the molecule, how does the Kd read?
The Kd was > 30 µM (inactive).

With `Cn1cc(-c2ccc3nnc(C(F)(F)c4ccc5ncccc5c4)n3n2)cn1` [JNJ-38877605] as the molecule, how does the Kd read?
Its Kd is > 30 µM (inactive).

target: Rho-associated protein kinase 1 (Homo sapiens, UniProt Q13464)
Sequence (Q13464 whole entry): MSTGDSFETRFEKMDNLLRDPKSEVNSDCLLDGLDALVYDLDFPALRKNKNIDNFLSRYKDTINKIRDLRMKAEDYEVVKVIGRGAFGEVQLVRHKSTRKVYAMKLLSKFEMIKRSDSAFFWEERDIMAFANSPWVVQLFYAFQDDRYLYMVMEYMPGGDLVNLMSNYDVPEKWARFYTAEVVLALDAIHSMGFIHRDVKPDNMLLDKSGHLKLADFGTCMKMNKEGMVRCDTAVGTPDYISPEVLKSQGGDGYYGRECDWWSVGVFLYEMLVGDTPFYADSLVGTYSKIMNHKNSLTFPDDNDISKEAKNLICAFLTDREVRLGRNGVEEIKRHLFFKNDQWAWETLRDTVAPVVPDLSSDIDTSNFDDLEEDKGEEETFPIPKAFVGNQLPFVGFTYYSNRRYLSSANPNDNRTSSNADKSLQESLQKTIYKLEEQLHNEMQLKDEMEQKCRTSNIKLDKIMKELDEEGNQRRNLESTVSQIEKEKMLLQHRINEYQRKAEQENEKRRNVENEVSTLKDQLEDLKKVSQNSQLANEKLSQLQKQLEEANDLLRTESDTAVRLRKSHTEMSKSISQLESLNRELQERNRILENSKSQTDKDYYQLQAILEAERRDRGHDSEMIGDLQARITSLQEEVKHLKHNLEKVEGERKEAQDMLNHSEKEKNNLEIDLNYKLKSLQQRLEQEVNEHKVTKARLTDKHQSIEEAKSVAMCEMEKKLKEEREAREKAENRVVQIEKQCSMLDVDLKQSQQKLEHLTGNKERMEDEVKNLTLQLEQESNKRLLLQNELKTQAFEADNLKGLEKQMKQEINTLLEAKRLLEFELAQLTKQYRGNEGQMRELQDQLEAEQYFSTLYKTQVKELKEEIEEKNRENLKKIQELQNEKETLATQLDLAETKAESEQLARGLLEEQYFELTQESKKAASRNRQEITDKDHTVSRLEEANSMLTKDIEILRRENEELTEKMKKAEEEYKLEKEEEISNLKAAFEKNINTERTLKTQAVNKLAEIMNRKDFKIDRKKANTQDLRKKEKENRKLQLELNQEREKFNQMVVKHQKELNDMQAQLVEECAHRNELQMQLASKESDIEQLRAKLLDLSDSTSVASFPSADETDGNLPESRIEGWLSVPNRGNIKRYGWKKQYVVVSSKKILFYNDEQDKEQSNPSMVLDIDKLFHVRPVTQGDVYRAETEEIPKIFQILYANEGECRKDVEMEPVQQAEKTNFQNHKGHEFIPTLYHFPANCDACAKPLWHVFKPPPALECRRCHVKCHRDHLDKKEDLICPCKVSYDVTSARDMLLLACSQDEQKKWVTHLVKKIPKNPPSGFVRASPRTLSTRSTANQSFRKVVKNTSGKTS

`CNC(=O)c1ccc(-c2cnc3ncc(Cc4ccc5ncccc5c4)n3n2)cc1F` [CAPMATINIB] was tested. Which Kd did it give?
The Kd was > 30 µM (inactive).

How did the Kd turn out when `COCCNCc1ccc(-c2cc3nccc(Oc4ccc(NC(=S)NC(=O)Cc5ccc(F)cc5)cc4F)c3s2)nc1` [GLESATINIB] was run?
Its Kd is > 30 µM (inactive).

How did the Kd turn out when `Cn1cc(-c2ccc3nnc(C(F)(F)c4ccc5ncccc5c4)n3n2)cn1` [JNJ-38877605] was run?
The Kd was > 30 µM (inactive).

target: T4, Interleukin-1 receptor-associated kinase 3 (Homo sapiens, UniProt Q9Y616)
T4 sequence (Q9Y616 whole entry): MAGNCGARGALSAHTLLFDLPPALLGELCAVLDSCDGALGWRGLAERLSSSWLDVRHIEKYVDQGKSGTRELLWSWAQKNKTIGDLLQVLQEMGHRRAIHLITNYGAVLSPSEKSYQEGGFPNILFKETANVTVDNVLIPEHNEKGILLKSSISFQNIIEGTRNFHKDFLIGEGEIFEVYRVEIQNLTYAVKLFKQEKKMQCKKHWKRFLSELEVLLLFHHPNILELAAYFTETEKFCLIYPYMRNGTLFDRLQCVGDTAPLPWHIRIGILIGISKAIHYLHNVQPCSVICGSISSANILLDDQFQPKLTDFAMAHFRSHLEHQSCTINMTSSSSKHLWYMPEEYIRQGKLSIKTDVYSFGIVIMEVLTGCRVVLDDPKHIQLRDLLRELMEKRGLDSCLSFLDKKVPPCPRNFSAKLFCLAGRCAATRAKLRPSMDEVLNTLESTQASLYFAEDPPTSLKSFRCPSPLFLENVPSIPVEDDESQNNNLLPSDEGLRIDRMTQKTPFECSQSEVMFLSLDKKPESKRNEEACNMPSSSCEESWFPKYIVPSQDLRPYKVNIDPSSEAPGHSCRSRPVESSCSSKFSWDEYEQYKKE

With `CNC(=O)c1ccc(-c2cnc3ncc(Cc4ccc5ncccc5c4)n3n2)cc1F` [CAPMATINIB] as the molecule, how does the Kd read?
The Kd was > 30 µM (inactive).

Which Kd does the source give for `COCCNCc1ccc(-c2cc3nccc(Oc4ccc(NC(=S)NC(=O)Cc5ccc(F)cc5)cc4F)c3s2)nc1` [GLESATINIB] here?
Its Kd is > 30 µM (inactive).

How did the Kd turn out when `Cn1cc(-c2ccc3nnc(C(F)(F)c4ccc5ncccc5c4)n3n2)cn1` [JNJ-38877605] was run?
Its Kd is > 30 µM (inactive).

target: Tyrosine-protein kinase Yes (Homo sapiens, UniProt P07947)
Sequence (P07947 whole entry): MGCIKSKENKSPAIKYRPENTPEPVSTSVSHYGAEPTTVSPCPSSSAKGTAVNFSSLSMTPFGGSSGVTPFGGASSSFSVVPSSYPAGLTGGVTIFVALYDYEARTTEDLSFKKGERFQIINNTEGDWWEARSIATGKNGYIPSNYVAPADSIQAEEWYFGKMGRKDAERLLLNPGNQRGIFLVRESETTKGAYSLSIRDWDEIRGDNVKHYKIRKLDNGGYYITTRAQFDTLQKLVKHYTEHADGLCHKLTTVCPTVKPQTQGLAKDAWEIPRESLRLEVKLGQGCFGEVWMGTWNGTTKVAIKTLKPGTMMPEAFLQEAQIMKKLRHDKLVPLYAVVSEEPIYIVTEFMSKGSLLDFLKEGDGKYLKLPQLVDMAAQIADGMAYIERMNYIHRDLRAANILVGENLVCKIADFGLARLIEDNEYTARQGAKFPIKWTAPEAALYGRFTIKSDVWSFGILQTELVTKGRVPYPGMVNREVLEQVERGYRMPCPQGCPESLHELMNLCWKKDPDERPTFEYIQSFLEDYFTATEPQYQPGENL

How did the Kd turn out when `CNC(=O)c1ccc(-c2cnc3ncc(Cc4ccc5ncccc5c4)n3n2)cc1F` [CAPMATINIB] was run?
Its Kd is > 30 µM (inactive).

`COCCNCc1ccc(-c2cc3nccc(Oc4ccc(NC(=S)NC(=O)Cc5ccc(F)cc5)cc4F)c3s2)nc1` [GLESATINIB] was tested. Which Kd did it give?
Its Kd is > 30 µM (inactive).

`Cn1cc(-c2ccc3nnc(C(F)(F)c4ccc5ncccc5c4)n3n2)cn1` [JNJ-38877605] was tested. Which Kd did it give?
The Kd was > 30 µM (inactive).

target: Serine/threonine-protein kinase 16 (Homo sapiens, UniProt O75716)
Sequence (O75716 whole entry): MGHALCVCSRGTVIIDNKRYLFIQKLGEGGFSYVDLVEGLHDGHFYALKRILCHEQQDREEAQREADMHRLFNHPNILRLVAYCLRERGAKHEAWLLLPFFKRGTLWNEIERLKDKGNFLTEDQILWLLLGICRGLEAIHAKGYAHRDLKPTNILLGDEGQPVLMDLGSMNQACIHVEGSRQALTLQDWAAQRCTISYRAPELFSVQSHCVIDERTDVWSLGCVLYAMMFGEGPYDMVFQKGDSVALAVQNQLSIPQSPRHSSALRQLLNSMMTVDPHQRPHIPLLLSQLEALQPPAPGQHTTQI

With `CNC(=O)c1ccc(-c2cnc3ncc(Cc4ccc5ncccc5c4)n3n2)cc1F` [CAPMATINIB] as the molecule, how does the Kd read?
The Kd was > 30 µM (inactive).

`COCCNCc1ccc(-c2cc3nccc(Oc4ccc(NC(=S)NC(=O)Cc5ccc(F)cc5)cc4F)c3s2)nc1` [GLESATINIB] was tested. Which Kd did it give?
Its Kd is > 30 µM (inactive).

How did the Kd turn out when `Cn1cc(-c2ccc3nnc(C(F)(F)c4ccc5ncccc5c4)n3n2)cn1` [JNJ-38877605] was run?
Its Kd is > 30 µM (inactive).

target: T5, Ferrochelatase, mitochondrial (Homo sapiens, UniProt P22830)
T5 sequence (P22830 whole entry): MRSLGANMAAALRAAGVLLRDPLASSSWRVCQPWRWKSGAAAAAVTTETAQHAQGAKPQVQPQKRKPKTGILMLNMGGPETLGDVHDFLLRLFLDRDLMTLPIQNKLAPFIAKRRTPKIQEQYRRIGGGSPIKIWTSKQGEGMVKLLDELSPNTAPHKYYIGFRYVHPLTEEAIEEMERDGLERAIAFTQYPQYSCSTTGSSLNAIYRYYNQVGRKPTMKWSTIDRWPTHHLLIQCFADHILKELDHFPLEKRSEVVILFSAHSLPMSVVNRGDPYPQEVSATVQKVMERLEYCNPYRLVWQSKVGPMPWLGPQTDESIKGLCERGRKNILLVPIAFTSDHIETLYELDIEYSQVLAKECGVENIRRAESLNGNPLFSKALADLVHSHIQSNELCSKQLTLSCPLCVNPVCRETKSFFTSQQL

Which Kd does the source give for `CNC(=O)c1ccc(-c2cnc3ncc(Cc4ccc5ncccc5c4)n3n2)cc1F` [CAPMATINIB] here?
The Kd was > 30 µM (inactive).

`COCCNCc1ccc(-c2cc3nccc(Oc4ccc(NC(=S)NC(=O)Cc5ccc(F)cc5)cc4F)c3s2)nc1` [GLESATINIB] was tested. Which Kd did it give?
Its Kd is > 30 µM (inactive).

`Cn1cc(-c2ccc3nnc(C(F)(F)c4ccc5ncccc5c4)n3n2)cn1` [JNJ-38877605] was tested. Which Kd did it give?
The Kd was > 30 µM (inactive).

target: Mitotic checkpoint serine/threonine-protein kinase BUB1 (Homo sapiens, UniProt O43683)
Sequence (O43683 whole entry): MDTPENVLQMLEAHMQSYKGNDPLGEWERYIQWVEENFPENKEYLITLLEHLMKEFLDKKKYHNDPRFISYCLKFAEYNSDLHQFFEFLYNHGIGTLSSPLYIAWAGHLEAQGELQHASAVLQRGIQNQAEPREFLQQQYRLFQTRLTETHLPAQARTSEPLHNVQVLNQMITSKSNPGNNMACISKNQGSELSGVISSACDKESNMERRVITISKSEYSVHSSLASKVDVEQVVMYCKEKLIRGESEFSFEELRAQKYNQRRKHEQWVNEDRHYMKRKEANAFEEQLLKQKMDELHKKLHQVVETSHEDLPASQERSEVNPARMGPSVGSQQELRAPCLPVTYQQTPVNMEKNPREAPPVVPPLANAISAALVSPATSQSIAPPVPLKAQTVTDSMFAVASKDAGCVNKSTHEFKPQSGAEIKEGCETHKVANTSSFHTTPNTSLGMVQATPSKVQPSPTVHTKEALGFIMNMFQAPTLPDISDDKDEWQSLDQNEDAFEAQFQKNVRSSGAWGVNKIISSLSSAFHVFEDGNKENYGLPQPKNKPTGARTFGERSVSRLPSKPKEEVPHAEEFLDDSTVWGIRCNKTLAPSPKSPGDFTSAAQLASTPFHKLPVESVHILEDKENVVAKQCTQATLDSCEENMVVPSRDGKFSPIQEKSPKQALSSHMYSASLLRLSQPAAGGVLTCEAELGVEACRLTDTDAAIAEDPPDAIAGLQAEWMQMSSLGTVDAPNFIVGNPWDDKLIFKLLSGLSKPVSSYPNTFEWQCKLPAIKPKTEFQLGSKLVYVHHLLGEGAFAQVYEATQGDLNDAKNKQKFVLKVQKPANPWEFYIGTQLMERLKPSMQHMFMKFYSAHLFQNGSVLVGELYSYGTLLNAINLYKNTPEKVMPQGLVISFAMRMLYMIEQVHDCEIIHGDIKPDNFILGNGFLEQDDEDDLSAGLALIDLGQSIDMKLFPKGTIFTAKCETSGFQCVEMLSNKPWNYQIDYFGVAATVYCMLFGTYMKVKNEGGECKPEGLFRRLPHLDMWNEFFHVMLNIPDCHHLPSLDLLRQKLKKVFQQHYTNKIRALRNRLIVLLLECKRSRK

For `CNC(=O)c1ccc(-c2cnc3ncc(Cc4ccc5ncccc5c4)n3n2)cc1F` [CAPMATINIB], which Kd is on record?
Its Kd is > 30 µM (inactive).

`COCCNCc1ccc(-c2cc3nccc(Oc4ccc(NC(=S)NC(=O)Cc5ccc(F)cc5)cc4F)c3s2)nc1` [GLESATINIB] was tested. Which Kd did it give?
The Kd was > 30 µM (inactive).

`Cn1cc(-c2ccc3nnc(C(F)(F)c4ccc5ncccc5c4)n3n2)cn1` [JNJ-38877605] was tested. Which Kd did it give?
Its Kd is > 30 µM (inactive).

target: Mitogen-activated protein kinase kinase kinase kinase 5 (Homo sapiens, UniProt Q9Y4K4)
Sequence (Q9Y4K4 whole entry): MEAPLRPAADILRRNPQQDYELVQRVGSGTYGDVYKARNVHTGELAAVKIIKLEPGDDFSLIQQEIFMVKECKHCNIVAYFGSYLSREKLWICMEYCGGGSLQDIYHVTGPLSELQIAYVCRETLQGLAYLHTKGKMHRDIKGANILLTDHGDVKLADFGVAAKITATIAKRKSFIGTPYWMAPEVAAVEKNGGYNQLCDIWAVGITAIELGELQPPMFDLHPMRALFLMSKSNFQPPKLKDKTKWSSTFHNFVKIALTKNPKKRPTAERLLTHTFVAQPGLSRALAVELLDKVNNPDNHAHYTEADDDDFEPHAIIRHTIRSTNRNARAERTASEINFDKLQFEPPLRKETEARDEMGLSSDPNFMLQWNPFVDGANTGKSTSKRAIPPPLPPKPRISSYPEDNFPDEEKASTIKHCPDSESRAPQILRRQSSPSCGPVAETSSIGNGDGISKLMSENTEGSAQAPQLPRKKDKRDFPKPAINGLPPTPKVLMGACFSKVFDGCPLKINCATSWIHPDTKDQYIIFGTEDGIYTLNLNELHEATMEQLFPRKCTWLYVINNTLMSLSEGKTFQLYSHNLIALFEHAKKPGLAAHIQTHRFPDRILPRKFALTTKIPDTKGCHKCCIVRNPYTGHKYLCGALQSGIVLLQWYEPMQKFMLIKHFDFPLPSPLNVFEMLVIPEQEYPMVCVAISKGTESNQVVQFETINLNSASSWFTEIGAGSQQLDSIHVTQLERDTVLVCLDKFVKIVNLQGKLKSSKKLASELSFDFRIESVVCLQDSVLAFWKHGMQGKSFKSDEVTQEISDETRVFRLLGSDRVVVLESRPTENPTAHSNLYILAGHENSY

Which Kd does the source give for `CNC(=O)c1ccc(-c2cnc3ncc(Cc4ccc5ncccc5c4)n3n2)cc1F` [CAPMATINIB] here?
Its Kd is > 30 µM (inactive).

With `COCCNCc1ccc(-c2cc3nccc(Oc4ccc(NC(=S)NC(=O)Cc5ccc(F)cc5)cc4F)c3s2)nc1` [GLESATINIB] as the molecule, how does the Kd read?
Its Kd is > 30 µM (inactive).

With `Cn1cc(-c2ccc3nnc(C(F)(F)c4ccc5ncccc5c4)n3n2)cn1` [JNJ-38877605] as the molecule, how does the Kd read?
Its Kd is > 30 µM (inactive).
